The results in this text go back to patent US7615628B2, “Imidazopyridine derivatives” (Riken, priority 2005, dated 2009).

Assay [1] relates to cultured human fibrosarcoma HT-1080 cells. As to the kind of experiment: MTT assay, cell growth inhibitory activity on cancer cells. In kind it is cell-based. The following applies: for higher growth inhibitory activity on cancer cells than on normal cells: HT-1080 cancer cells versus WI-38 normal cells, from IC50 values; for IC50: Homo sapiens, MTT assay, 72 hours incubation at 37° C., HT-1080 cells, value ± standard deviation. On the procedure: (§1) MTT assay was performed to examine two test compounds, i.e., 7-(2-thienyl)-3-(2-deoxy-1-β-D-ribofuranosyl)-3H-imidazo[4,5-b]pyridine (herein referred to as Compound IA) and 5-amino-7-(2-thienyl)-3-(2-deoxy-1-β-D-ribofuranosyl)-3H-imidazo[4,5-b]pyridine (herein referred to as Compound IB) for their cell growth inhibitory effect on cultured human fibrosarcoma HT-1080 cells and human fetal lung fibroblast (normal diploid fibroblast) WI-38 cells. These cells (1×10^4 cells/ml) were seeded in 96-well microplates (IWAKI) at 90 μl/well. After culturing at 37° C. for 3 to 4 hours, test compound solutions (10 μl each), which had been dissolved in PBS-5% DMSO and adjusted to various concentrations, were added and incubated at 37° C. for 72 hours. To the wells containing these solutions, a PBS solution of MTT (5 mg/ml) was added in 25 μl volumes and incubated at 37° C. for an additional 2 hours, followed by addition of a 50% DMF-20% SDS solution in 100 μl to each well. After incubation was continued at 37° C. for 16 hours, the absorbance at 570 nm was measured using a microplate reader to calculate % inhibition according to the following equation. % Inhibition=100×[1−(Abssample−Absbackground)/(Absnegative control−Absbackground)] [Expression 2]
(§2) Abssample: Absorbance in the presence of test compound
(§3) Absbackground: Absorbance in the absence of cells and test compound
Absnegative control: Absorbance in the absence of test compound
The concentration (IC50 μM) required for each test compound to cause 50% inhibition of cell growth was calculated from a concentration-inhibition curve. The IC50 values are shown in Table 1 below, along with their standard deviation.
A general note: Tetrazolium assays rely on reduction of a dye to a coloured formazan, in cell work by metabolically active cells.

The subject of assay [2] is human fetal lung fibroblast (normal diploid fibroblast) WI-38 cells. As to the kind of experiment: MTT assay, cell growth inhibitory activity on normal cells. It counts as cell-based. The following applies: 72 hours incubation at 37° C., WI-38 normal cells, value ± standard deviation. On the procedure: as §1, with “To the wells containing these solutions, a PBS solution of MTT (5 mg/ml) was added in 25 μl volumes and incubated at 37° C. for an additional 2 hours, followed by addition of a 50% DMF-20% SDS solution in 100 μl to each well.” left out, “[Expression 2]” left out
as §2, §3
Absnegative control: Absorbance in the absence of test compound […]

The IC50 is the concentration that gives 50% inhibition. A higher IC50 goes with lower potency.

Consider `Nc1cc(-c2cccs2)c2ncn([C@H]3C[C@@H](O)[C@@H](CO)O3)c2n1` [Compound IB, 5-amino-7-(2-thienyl)-3-(2-deoxy-1-β-D-ribofuranosyl)-3H-imidazo[4,5-b]pyridine], for which, in assay [1], the “higher growth inhibitory activity on cancer cells than on normal cells” value is listed as “about 10 fold” and 34 µM corresponded to half-maximal inhibition (IC50). Further, the IC50 in assay [2] was found to be 330 ± 40 µM.

On to `OC[C@H]1O[C@@H](n2cnc3c(-c4cccs4)ccnc32)C[C@H]1O` [Compound IA, 7-(2-thienyl)-3-(2-deoxy-1-β-D-ribofuranosyl)-3H-imidazo[4,5-b]pyridine], for which, in assay [1], the “higher growth inhibitory activity on cancer cells than on normal cells” value is recorded as “about 5 fold”. For the same compound, the IC50 in assay [1] came out at 62 µM; in assay [2], 290 ± 130 µM.
